Where “and” joins values, the source holds several entries; their conditions need not be identical. Equal values may be shown once. Toxic doses and inconclusive results are not listed. Rule for the calls: active = survival T/C of 150% or more; inactive = T/C below 125% in these data.
Tested on: BDF1 mice, B16 melanoma ip, median survival T/C
Assay: NCI In Vivo Anticancer Drug Screen. Data for tumor model B16 Melanoma (intraperitoneal) in B6D2F1 (BDF1) mice
Conditions: endpoint: median survival time, higher = longer survival
Summary of the method: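 Vehicle-treated animals serve as the reference (C); treated animals (T) are scored for survival or tumor size after tumor transplantation.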

[1] = dose: 100.0 mg/kg/injection, schedule: Q01DX009 (ip), vehicle: Klucel (hydroxypropylcellulose) (HPC)
[2] = dose: 100.0 mg/kg/injection, schedule: Q04DX003 (ip), vehicle: Klucel (hydroxypropylcellulose) (HPC)
[3] = dose: 200.0 mg/kg/injection, schedule: Q01DX009 (ip), vehicle: Klucel (hydroxypropylcellulose) (HPC)
[4] = dose: 200.0 mg/kg/injection, schedule: Q04DX003 (ip), vehicle: Klucel (hydroxypropylcellulose) (HPC)
[5] = dose: 400.0 mg/kg/injection, schedule: Q01DX009 (ip), vehicle: Klucel (hydroxypropylcellulose) (HPC)
[6] = dose: 50.0 mg/kg/injection, schedule: Q01DX009 (ip), vehicle: saline with Tween-80
[7] = dose: 100.0 mg/kg/injection, schedule: Q01DX009 (ip), vehicle: saline with Tween-80
[8] = dose: 6.25 mg/kg/injection, schedule: Q01DX009 (ip), vehicle: Klucel (hydroxypropylcellulose) (HPC)
[9] = dose: 12.5 mg/kg/injection, schedule: Q01DX009 (ip), vehicle: Klucel (hydroxypropylcellulose) (HPC)
[10] = dose: 12.5 mg/kg/injection, schedule: Q01DX009 (ip), vehicle: saline with Tween-80
[11] = dose: 25.0 mg/kg/injection, schedule: Q01DX009 (ip), vehicle: saline with Tween-80
[12] = dose: 25.0 mg/kg/injection, schedule: Q01DX009 (ip), vehicle: Klucel (hydroxypropylcellulose) (HPC)
[13] = dose: 50.0 mg/kg/injection, schedule: Q01DX009 (ip), vehicle: Klucel (hydroxypropylcellulose) (HPC)
[14] = dose: 12.5 mg/kg/injection, schedule: Q01DX009 (ip), vehicle: saline
[15] = dose: 25.0 mg/kg/injection, schedule: Q01DX009 (ip), vehicle: saline
[16] = dose: 400.0 mg/kg/injection, schedule: Q04DX003 (ip), vehicle: Klucel (hydroxypropylcellulose) (HPC)
[17] = dose: 200.0 mg/kg/injection, schedule: Q01DX009 (ip), vehicle: saline with Tween-80

Measured: T/C

CCC/C(=C\C(=O)O)CC
inactive: [1] 108 % of control | [2] 95 % of control | [3] 100 % of control | [4] 95 % of control | [5] 97 % of control

COc1ccc(Br)cc1
inactive: [6] 100 % of control | [7] 104 % of control

S=C=NCC(Br)CBr (stereo not drawn)
inactive: [8] 86 % of control | [9] 86 % of control

CCCCC(=O)NN
inactive: [10] 102 % of control | [11] 96 % of control | [6] 100 % of control

C=C1C(=O)O[C@@H]2[C@H]3O[C@]3(C)CCC=C(C)CC[C@@H]12
inactive: [9] 92 % of control | [12] 87 % of control | [13] 92 % of control

NC(=NCc1ccccc1)c1ccc(N=C(N)c2ccc(C(N)=Nc3ccc(C(N)=NCc4ccccc4)cc3)cc2)cc1
inactive: dose: 2.5 mg/kg/injection, schedule: Q01DX009 (ip), vehicle: saline 97 % of control | dose: 5.0 mg/kg/injection, schedule: Q01DX009 (ip), vehicle: saline 96 % of control | dose: 10.0 mg/kg/injection, schedule: Q01DX009 (ip), vehicle: saline 92 % of control | dose: 20.0 mg/kg/injection, schedule: Q01DX009 (ip), vehicle: saline 96 % of control

c1ccc(Cc2ccccc2)cc1
inactive: [7] 89 % of control

Cc1cccc(C)c1NS(=O)(=O)c1ccc(Cl)cc1
inactive: [12] 99 % of control | [13] 97 % of control | [1] 99 % of control and 104 % of control | [5] 116 % of control

c1ccc(C[n+]2ccc3ccccc3c2)cc1
inactive: dose: 6.25 mg/kg/injection, schedule: Q01DX009 (ip), vehicle: saline 105 % of control and 113 % of control | dose: 6.25 mg/kg/injection, schedule: Q04DX003 (ip), vehicle: saline with Tween-80 95 % of control | [14] 117 % of control | dose: 12.5 mg/kg/injection, schedule: Q04DX003 (ip), vehicle: saline with Tween-80 107 % of control | [15] 108 % of control and 110 % of control | dose: 25.0 mg/kg/injection, schedule: Q04DX003 (ip), vehicle: saline with Tween-80 100 % of control

O=C(Nc1ccccc1C(F)(F)F)c1cccc(C(=O)Nc2ccccc2C(F)(F)F)c1
inactive: dose: 100.0 mg/kg/injection, schedule: Q04DX003 (ip), vehicle: carboxymethylcellulose (CMC) 100 % of control | dose: 200.0 mg/kg/injection, schedule: Q04DX003 (ip), vehicle: carboxymethylcellulose (CMC) 91 % of control

CN1C2CCC1CNC2
inactive: dose: 100.0 mg/kg/injection, schedule: Q04DX003 (ip), vehicle: saline 105 % of control | dose: 200.0 mg/kg/injection, schedule: Q04DX003 (ip), vehicle: saline 105 % of control | dose: 400.0 mg/kg/injection, schedule: Q04DX003 (ip), vehicle: saline 100 % of control

Cc1c(O)c2c(c(O)c1Cc1ccc(CN)cc1)C(=O)c1ccccc1C2=O
inactive: dose: 0.78 mg/kg/injection, schedule: Q01DX009 (ip), vehicle: water 109 % of control | dose: 1.56 mg/kg/injection, schedule: Q01DX009 (ip), vehicle: water 109 % of control | dose: 3.13 mg/kg/injection, schedule: Q01DX009 (ip), vehicle: water 98 % of control | dose: 6.25 mg/kg/injection, schedule: Q01DX009 (ip), vehicle: water 93 % of control

[N-]=[N+]=C1Cc2ccccc2C1=O
inactive: [1] 97 % of control | [3] 105 % of control

CN(C)/C=C/C(=O)c1ccccc1[N+](=O)[O-]
inactive: [1] 115 % of control | [2] 95 % of control | [3] 100 % of control | [4] 92 % of control | [5] 93 % of control | [16] 88 % of control

COC(=O)/C=C/c1ccc(OC)cc1
inactive: [1] 97 % of control | [3] 97 % of control | [4] 86 % of control | [5] 97 % of control | [16] 100 % of control

O=[N+]([O-])c1ccc(Cl)c2c([N+](=O)[O-])cccc12
inactive: [10] 100 % of control | [11] 91 % of control | [6] 93 % of control and 94 % of control

CC(=O)N(C)O
inactive: [11] 98 % of control | [6] 107 % of control | [7] 101 % of control | [17] 103 % of control

Cc1cc(N)c2cc(NC(=O)CCCCCCCCC(=O)Nc3ccc4nc(C)cc(N)c4c3)ccc2n1
inactive: dose: 3.12 mg/kg/injection, schedule: Q01DX009 (ip), vehicle: Klucel (hydroxypropylcellulose) (HPC) 89 % of control | [8] 87 % of control and 91 % of control | [9] 100 % of control | [12] 95 % of control and 107 % of control | [13] 95 % of control and 99 % of control

NC(CC(=O)NC(=O)OCc1ccccc1)C(=O)O (stereo not drawn)
inactive: [7] 100 % of control | [17] 105 % of control | dose: 400.0 mg/kg/injection, schedule: Q01DX009 (ip), vehicle: saline with Tween-80 110 % of control

COc1ccc(CCNC(=S)NCCc2ccc(OC)c(OC)c2)cc1OC
inactive: [1] 86 % of control | [3] 92 % of control | [5] 115 % of control

Cc1cc(C)c(OCC(O)CO)c(C)c1 (stereo not drawn)
inactive: [7] 104 % of control | [17] 93 % of control

Clc1ccc(C(Cl)(Cl)Cl)cc1Cl
inactive: [13] 103 % of control | dose: 50.0 mg/kg/injection, schedule: Q04DX003 (ip), vehicle: Klucel (hydroxypropylcellulose) (HPC) 102 % of control | [1] 92 % of control | [2] 102 % of control | [3] 96 % of control | [4] 119 % of control

C=C(CCCCC)C(=O)/C=C/c1ccc(Cl)cc1
inactive: dose: 75.0 mg/kg/injection, schedule: Q04DX003 (ip), vehicle: Klucel (hydroxypropylcellulose) (HPC) 94 % of control | dose: 150.0 mg/kg/injection, schedule: Q04DX003 (ip), vehicle: Klucel (hydroxypropylcellulose) (HPC) 94 % of control

N#CCc1c(Cl)ccc(Cl)c1Cl
inactive: [8] 104 % of control | [9] 99 % of control | [12] 95 % of control | [13] 107 % of control

C=C1C(=O)OC2C=C(C)CC3C=C(CCC=C(C)CCC12)C(=O)O3 (stereo not drawn)
inactive: dose: 4.0 mg/kg/injection, schedule: Q01DX009 (ip), vehicle: Klucel (hydroxypropylcellulose) (HPC) 90 % of control | dose: 8.0 mg/kg/injection, schedule: Q01DX009 (ip), vehicle: Klucel (hydroxypropylcellulose) (HPC) 105 % of control | dose: 16.0 mg/kg/injection, schedule: Q01DX009 (ip), vehicle: Klucel (hydroxypropylcellulose) (HPC) 116 % of control | dose: 32.0 mg/kg/injection, schedule: Q01DX009 (ip), vehicle: Klucel (hydroxypropylcellulose) (HPC) 101 % of control

C[C@H](CCC(=O)O)[C@H]1CC[C@H]2[C@@H]3[C@H](O)C[C@@H]4C[C@H](O)CC[C@]4(C)[C@H]3C[C@H](O)[C@]12C (tested in a mixture with another compound)
inactive: dose: 50.0 mg/kg/injection, schedule: Q01DX009 (ip), vehicle: saline 102 % of control | dose: 100.0 mg/kg/injection, schedule: Q01DX009 (ip), vehicle: saline 109 % of control | dose: 200.0 mg/kg/injection, schedule: Q01DX009 (ip), vehicle: saline 111 % of control

CNc1n[n+](-c2ccccc2)no1
inactive: [14] 119 % of control | [15] 124 % of control
